The experiment concerns the target T1, KRAS G12D (Homo sapiens, UniProt P01116, G12D).
T1 construct: made in house; host or cells: E. coli, e.g. BL21 (DE3)
The experiment can be described thus: HTRF KRAS-SOS1 interaction assay, KRAS G12D. The class given is biochemical. The conditions noted are these: binned ≤2 μM / >2 μM, read-out: Inhibition of KRAS G12D (IC50). The text has this: This assay can be also used to assess a selective inhibition or reduction of signaling output of a mutant Ras protein relative to a wildtype, or relative to a different mutant Ras protein. For example, the equilibrium interaction of wildtype KRAS or K-Ras mutant (e.g., wildtype or a mutant thereof) with SOS1 (e.g., hSOS1) can be assessed as a proxy or an indication for the ability of a subject compound to bind and inhibit Ras protein. The HTRF assay detects from (i) a fluorescence resonance energy transfer (FRET) donor (e.g., antiGST-Europium) that is bound to GST-tagged K-Ras mutant to (ii) a FRET acceptor (e.g., anti-6His-XL665) bound to a His-tagged hSOS1.
The assay buffer can contain ˜5 mM HEPES pH 7.4, ˜150 mM NaCl, ˜1 mM DTT, 0.05% BSA and 0.0025% (v/v) Igepal. A Ras working solution is prepared in an assay buffer containing typically a suitable amount of the protein construct (e.g., GST-tagged K-Ras mutant) and the FRET donor (e.g., antiGST-Eu (K) from Cisbio, France). A SOS1 working solution is prepared in an assay buffer containing suitable amount of the protein construct (e.g., His-hSOS1) and the FRET acceptor (e.g., anti-6His-XL665 from Cisbio, France). A suitable amount of the protein construct will depend on the range of activity or range of IC50 values being detected or under investigation. For detecting an IC50 within a range of 500 nM, the protein constructs of the same range of molarity can be utilized.
A fixed volume of DMSO with or without test compound is transferred into a 384-well plate. Ras working solution is added to all wells of the test plate. SOS1 working solution is added to all wells except for those that are subsequently filled with inhibitor control solution. Upon incubation for about 10 minutes or longer, the fluorescence is measured with a M1000Pro plate reader (Tecan) using HTRF detection (excitation 337 nm, emission 1:620 nm, emission 2:665 nm). Compounds are tested in duplicate at different concentrations (for example, 10 μM, 2.5 μM, 0.63 μM, 0.16 μM, 0.04 μM, 0.01 μM test compound). The ratiometric data (i.e., emission 2 divided by emission 1) is used to calculate IC50 values against Ras using GraphPad Prism (GraphPad software). Signaling output measured in terms of IC50 values can be obtained and a ratio of IC50 against one mutant relative to another mutant can be calculated.
Background: In TR-FRET formats the signal depends on donor and acceptor labels being close together.

SMILES strings stand for the structures.

By IC50 is commonly meant the point on the concentration scale where inhibition reaches its midpoint.

T1 sequence (P01116 1-188 isoform P01116-2 G12D): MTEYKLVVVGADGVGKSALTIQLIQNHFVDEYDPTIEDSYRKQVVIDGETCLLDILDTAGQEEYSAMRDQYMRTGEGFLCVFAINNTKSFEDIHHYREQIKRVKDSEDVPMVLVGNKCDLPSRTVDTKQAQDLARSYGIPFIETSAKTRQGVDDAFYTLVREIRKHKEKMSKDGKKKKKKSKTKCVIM

Consider `C[C@H](c1cccnc1N)N1CCOc2c(C(F)(F)F)c(-c3cccc4sc(N)c(C#N)c34)c(F)c3nc(OC[C@@]45CCCN4C[C@H](F)C5)nc1c23` (single isomer, unassigned) [Compound 791], for which the IC50 is ≤ 2000 nM. In the case of `C[C@H](c1cccnc1N)N1CCOc2c(Cl)c(-c3ccc(F)c4sc(N)c(C#N)c34)c(F)c3nc(OCC4(CN(C)C)CC4)nc1c23` (single isomer, unassigned) [Compound 771] it was ≤ 2000 nM; in that of `N#Cc1c(N)sc2c(F)ccc(-c3c(Cl)c4c5c(nc(OC[C@@]67CCCN6C[C@H](F)C7)nc5c3F)N(C(CC(F)F)c3cccnc3N)CCO4)c12` (mixture of isomers) [Compound 776, 2-amino-4-(4-(1-(2-aminopyridin-3-yl)-3,3-difluoropropyl)-8-chloro-10-fluoro-2-(((2R,7aS)-2-fluorotetrahydro-1H-pyrrolizin-7a(5H)-yl)methoxy)-5,6-dihydro-4H-[1,4]oxazepino[5,6,7-de]quinazolin-9-yl)-7-fluorobenzo[b]thiophene-3-carbonitrile], ≤ 2000 nM; in that of `CC(c1cccnc1N)N1CCOc2c(Cl)c(-c3ccc(F)c4sc(N)c(C#N)c34)c(F)c3nc(OC[C@@]45CCCN4C[C@H](F)C5)nc1c23` (single isomer, unassigned) [Compound 820], ≤ 2000 nM. Under `C[C@H](c1cccnc1N)N1CCOc2c(Cl)c(-c3ccc(F)c4sc(N)c(C#N)c34)c(F)c3nc(OCC45CCCN4C[C@H](OCCCP(C)(C)=O)C5)nc1c23` (single isomer, unassigned) [Compound 857] stands ≤ 2000 nM; under `CCC(c1cccnc1N)N1CCOc2c(Cl)c(-c3ccc(F)c4sc(N)c(C#N)c34)c(F)c3nc(OC[C@@]45CCCN4C[C@H](F)C5)nc1c23` (mixture of isomers) [Compound 844, 2-amino-4-(4-(1-(2-aminopyridin-3-yl)propyl)-8-chloro-10-fluoro-2-(((2R,7aS)-2-fluorotetrahydro-1H-pyrrolizin-7a(5H)-yl)methoxy)-5,6-dihydro-4H-[1,4]oxazepino[5,6,7-de]quinazolin-9-yl)-7-fluorobenzo[b]thiophene-3-carbonitrile], ≤ 2000 nM; under `N#Cc1c(N)sc2c(F)ccc(-c3c(C(F)(F)F)c4c5c(nc(OC[C@@]67CCCN6C[C@H](F)C7)nc5c3F)N([C@H](CC3CC(F)(F)C3)c3cccnc3N)CCO4)c12` (single isomer, unassigned) [Compound 703], ≤ 2000 nM. In the case of `CC(c1cncnc1N)N1CCOc2c(Cl)c(-c3ccc(F)c4sc(N)c(C#N)c34)c(F)c3nc(OC[C@@]45CCCN4C[C@H](F)C5)nc1c23` (single isomer, unassigned) [Compound 699] it was ≤ 2000 nM.

As to `N#Cc1c(N)sc2c(F)ccc(-c3c(C(F)(F)F)c4c5c(nc(OC[C@@]67CCCN6C[C@H](F)C7)nc5c3F)N([C@H](CCC3COCCO3)c3cccnc3N)CCO4)c12` (single isomer, unassigned) [Compound 701], the IC50 was ≤ 2000 nM. In the case of `Cc1cnc(N)c([C@@H](C)N2CCOc3c(C(F)(F)F)c(-c4ccc(F)c5sc(N)c(C#N)c45)c(F)c4nc(OC[C@@]56CCCN5C[C@H](F)C6)nc2c34)n1` (single isomer, unassigned) [Compound 767] it was ≤ 2000 nM; in that of `CP(C)(=O)CC[C@H](c1cccnc1N)N1CCOc2c(C(F)(F)F)c(-c3ccc(F)c4sc(N)c(C#N)c34)c(F)c3nc(OC[C@@]45CCCN4C[C@H](F)C5)nc1c23` (single isomer, unassigned) [Compound 891], ≤ 2000 nM; in that of `N#Cc1c(N)sc2c(F)ccc(-c3c(Cl)c4c5c(nc(OC[C@@]67CCCN6C[C@H](F)C7)nc5c3F)N(C(/C=C\C(F)(F)F)c3cccnc3N)CCO4)c12` (single isomer, unassigned) [Compound 872], ≤ 2000 nM. With `CS(=O)(=O)CCC[C@H](c1cccnc1N)N1CCOc2c(C(F)(F)F)c(-c3ccc(F)c4sc(N)c(C#N)c34)c(F)c3nc(OC[C@@]45CCCN4C[C@H](F)C5)nc1c23` (single isomer, unassigned) [Compound 805], the IC50 is ≤ 2000 nM. For `C[C@H]1CN([C@@H](c2cccnc2N)C(F)F)c2nc(OC[C@@]34CCCN3C[C@H](F)C4)nc3c(F)c(-c4ccc(F)c5sc(N)c(C#N)c45)c(C(F)(F)F)c(c23)O1` (single isomer, unassigned) [Compound 889], the IC50 is ≤ 2000 nM. In the case of `N#Cc1c(N)sc2c(F)ccc(-c3c(C(F)(F)F)c4c5c(nc(OC[C@@]67CCCN6C[C@H](F)C7)nc5c3F)N([C@H](CCC3CC(F)(F)C3)c3cccnc3N)CCO4)c12` (single isomer, unassigned) [Compound 724] it was ≤ 2000 nM. As to `CCO/N=C1\CN2CCC[C@@]2(COc2nc3c4c(c(Cl)c(-c5ccc(F)c6sc(N)c(C#N)c56)c(F)c4n2)OCCN3[C@H](C)c2cccnc2N)C1` (single isomer, unassigned) [Compound 865], the IC50 was ≤ 2000 nM. Regarding `CO/N=C1\CN2CCC[C@@]2(COc2nc3c4c(c(Cl)c(-c5ccc(F)c6sc(N)c(C#N)c56)c(F)c4n2)OCCN3[C@H](C)c2cccnc2N)C1` (single isomer, unassigned) [Compound 898], the IC50 was ≤ 2000 nM. In the case of `C=Cc1c(-c2ccc(F)c3sc(N)c(C#N)c23)c(F)c2nc(OC[C@@]34CCCN3C[C@H](F)C4)nc3c2c1OCCN3[C@H](C)c1cccnc1N` (single isomer, unassigned) [Compound 787] it was ≤ 2000 nM. As to `N#Cc1c(N)sc2c(F)ccc(-c3c(C(F)(F)F)c4c5c(nc(OC[C@@]67CCCN6C[C@H](F)C7)nc5c3F)N([C@H](CCN3CCOCC3)c3cccnc3N)CCO4)c12` (single isomer, unassigned) [Compound 735], the IC50 was ≤ 2000 nM. In the case of `C#C[C@H]1COc2c(Cl)c(-c3ccc(F)c4sc(N)c(C#N)c34)c(F)c3nc(OC[C@@]45CCCN4C[C@H](F)C5)nc(c23)N1C(C)c1cccnc1N` (single isomer, unassigned) [Compound 729], the IC50 is ≤ 2000 nM. In the case of `C[C@@H]1CN(CC2(COc3nc4c5c(c(C(F)(F)F)c(-c6ccc(F)c7sc(N)c(C#N)c67)c(F)c5n3)OCCN4[C@H](C)c3cccnc3N)CC2)C[C@H](C)O1` [Compound 886, 2-amino-4-(4-((R)-1-(2-aminopyridin-3-yl)ethyl)-2-((1-(((2S,6R)-2,6-dimethylmorpholino)methyl)cyclopropyl)methoxy)-10-fluoro-8-(trifluoromethyl)-5,6-dihydro-4H-[1,4]oxazepino[5,6,7-de]quinazolin-9-yl)-7-fluorobenzo[b]thiophene-3-carbonitrile] it was ≤ 2000 nM; in that of `N#Cc1c(N)sc2c(F)ccc(-c3c(C(F)(F)F)c4c5c(nc(OC[C@@]67CCCN6C[C@H](F)C7)nc5c3F)N([C@H](CCC3CCOCC3)c3cccnc3N)CCO4)c12` (single isomer, unassigned) [Compound 696], ≤ 2000 nM. Under `N#Cc1c(N)sc2c(F)ccc(-c3c(Cl)c4c5c(nc(OC[C@@]67CCCN6C[C@H](F)C7)nc5c3F)N(C(c3cccnc3N)C(F)F)CCO4)c12` (single isomer, unassigned) [Compound 786] stands ≤ 2000 nM; under `CC(c1cccnc1N)N1c2nc(OC[C@@]34CCCN3C[C@H](F)C4)nc3c(F)c(-c4ccc(F)c5sc(N)c(C#N)c45)c(Cl)c(c23)OC[C@@H]1CC#N` (mixture of isomers) [Compound 716, 2-amino-4-((5S)-4-(1-(2-aminopyridin-3-yl)ethyl)-8-chloro-5-(cyanomethyl)-10-fluoro-2-(((2R,7aS)-2-fluorotetrahydro-1H-pyrrolizin-7a(5H)-yl)methoxy)-5,6-dihydro-4H-[1,4]oxazepino[5,6,7-de]quinazolin-9-yl)-7-fluorobenzo[b]thiophene-3-carbonitrile], ≤ 2000 nM; under `N#Cc1c(N)sc2c(F)ccc(-c3c(Cl)c4c5c(nc(OC[C@@]67CCCN6C[C@H](F)C7)nc5c3F)N(C(C=C(F)F)c3cccnc3N)CCO4)c12` (single isomer, unassigned) [Compound 712], ≤ 2000 nM.

`C[C@H](c1cccnc1N)N1CCOc2c(C(F)(F)F)c(-c3ccc(F)c4sc(N)c(C#N)c34)c(F)c3nc(OC[C@@]45CCCN4CC(C#N)C5)nc1c23` (single isomer, unassigned) [Compound 754]: the IC50 was ≤ 2000 nM. Consider `N#Cc1c(N)sc2c(F)ccc(-c3c(C(F)(F)F)c4c5c(nc(OC[C@@]67CCCN6C[C@H](F)C7)nc5c3F)N([C@@H](c3cccnc3N)C(F)F)CCO4)c12` (single isomer, unassigned) [Compound 804], for which the IC50 was ≤ 2000 nM.

(Values after patent publication US12668600B2 (Kumquat Biosciences Inc., priority 2023, dated 2026).)
